Reference: patent publication US6399355B1 (priority 1995, dated 2002)

Tested on: HIV-1
Type: cell-based
Settings: for Inhibition Ratio (Number of viral particles/ml in control)/(Number with drug added): 1 μg/ml test compound mixed with HIV-1 (10^5 infectious units) at 37° C. for 2 hours, cells cultured six days; for viral inactivation (in words): at these concentrations (1 μg/ml)
Protocol: HIV-1 (10^5 infectious units) was mixed with 1 μg/ml of test compound at 37° C. for 2 hours. Test cells were innoculated with the mixture for two hours. The cells were then washed three times with PBS and cultured for six days.

Substance: Dextran sulfate
- Inhibition Ratio (Number of viral particles/ml in control)/(Number with drug added): 1
- viral inactivation (in words): do not show significant activation

Substance: pentosan sulfate [Pentosan Sultate]
- Inhibition Ratio (Number of viral particles/ml in control)/(Number with drug added): 1
- viral inactivation (in words): do not show significant activation
